What was measured:
[1] = system: HT-29 colon adenocarcinoma cells; experiment: Antiproliferative activity (NCI procedure, sulforhodamine B), HT-29; type: cell-based, human; conditions: Homo sapiens, HT-29, unit inferred, tested 781 nM to 100 μM, 48 h
Protocol: (§1) The antiproliferative activity of compounds 3a-b, 4a-e, 5a-e and 6a-e was subsequently evaluated using the human HT-29 colon adenocarcinoma and the A549 adenocarcinoma alveolar epithelial cancer cell lines, the HaCaT spontaneously transformed aneuploid immortal keratinocyte cell line and the HDFn neonatal dermal fibroblast cell line (Table 2). Cell growth inhibition was assessed according to the NCI/NIH Developmental Therapeutics Program.
(§2) The antiproliferative activity assay of all compounds was assessed using the procedure recommended by the National Cancer Institute for its drug screening program with minor modifications. Briefly, 96-well microtiter plates were seeded with 75 μL of a suspension of either HaCaT (5×10^3), HT-29 (3.0×10^3), A549 (3.0×10^3) or HDFn (3×10^3) cells per well in DMEM and incubated for 24 h at 37° C. in a moisture-saturated atmosphere containing 5% CO2. Compounds freshly solubilized in DMSO (40 mM) were diluted in fresh DMEM, and 75 μL aliquots containing serially diluted concentrations of the compound were added. Final compound concentrations ranged from 100 μM to 781 nM. DMSO was maintained at a concentration of <0.5% (v/v) to avoid any related cytotoxicity. Plates were subsequently incubated for 48 h. Cell growth was then stopped by the addition of cold trichloroacetic acid to the wells (10% w/v, final concentration), followed by a 1 h incubation period at 4° C. The plates were washed 4-times with water. A sulforhodamine B solution (75 μL; 0.1% w/v) in acetic acid (1%) was subsequently added to each well and the plates incubated over a 15 min period while at room temperature. After staining, any unbound dye was removed by washing 4-times with an acetic acid solution (1%). Bound dye was solubilized in 20 mM Tris base and the absorbance was measured at an optimal wavelength (530-568 nm) using a μQuant® Universal microplate spectrophotometer (BioTek, Winooski, Vt.). The measurements for treated cells were compared with measurements from control cell plates fixed on treatment day and the percentage of cell growth inhibition was calculated for each drug. The experiments were performed at least twice in triplicate. The assays were considered valid when the coefficient of variation for a given set of conditions and within the same experiment was <10%.

[2] = system: HaCaT keratinocyte cell line; experiment: Antiproliferative activity (NCI procedure, sulforhodamine B), HaCaT; type: cell-based, human; conditions: Homo sapiens, HaCaT, unit inferred, tested 781 nM to 100 μM, 48 h
Protocol: as §1, §2

[3] = system: HDFn neonatal dermal fibroblast cell line; experiment: Antiproliferative activity (NCI procedure, sulforhodamine B), HDFn; type: cell-based, human; conditions: Homo sapiens, Fibroblast, unit inferred, tested 781 nM to 100 μM, 48 h
Protocol: as §1, §2

[4] = system: A549 adenocarcinoma alveolar epithelial cancer cells; experiment: Antiproliferative activity (NCI procedure, sulforhodamine B), A549; type: cell-based, human; conditions: Homo sapiens, A549, unit inferred, tested 781 nM to 100 μM, 48 h
Protocol: as §1, §2

Compound	melting point	IC50 ([1]; Table 8)	IC50 ([2]; Table 8)	IC50 ([3]; Table 8)	IC50 ([4]; Table 8)	IC50 ([1]; Table 5)	IC50 ([2]; Table 5)	IC50 ([3]; Table 5)	IC50 ([4]; Table 5)	IC50 ([1]; Table 6)	IC50 ([2]; Table 6)	IC50 ([3]; Table 6)	IC50 ([4]; Table 6)
S=C(Nc1cccc(C2CCCCC2)c1)NC1CCCC1 [Compound 107]	129 to 142 °C	5.7 µM	7.9 µM	3.8 µM	6.2 µM	–	–	–	–	–	–	–	–
CC(C)(C)c1cccc(NC(=S)NC2CCCC2)c1 [Compound 91]	170 to 180 °C	21 µM	31.8 µM	16.3 µM	19.4 µM	–	–	–	–	–	–	–	–
S=C(Nc1ccc(I)cc1)NC1CC1 [Compound 101]	166 to 180 °C	63.3 µM	> 100 µM	> 100 µM	65.1 µM	–	–	–	–	–	–	–	–
CCCNC(=O)Nc1cccc(C2CCCCC2)c1 [Compound 18]	131 to 134 °C	–	–	–	–	24.1 µM	32 µM	23 µM	21 µM	–	–	–	–
S=C(NCC1CCC1)Nc1cccc(C2CCCCC2)c1 [Compound 106]	102 to 110 °C	13.2 µM	14.9 µM	4.9 µM	17 µM	–	–	–	–	–	–	–	–
CCCNC(=O)Nc1ccc(I)cc1 [Compound 3]	197 to 199 °C	–	–	–	–	51.9 µM	94.9 µM	81.3 µM	82.7 µM	–	–	–	–
S=C(Nc1cccc(I)c1)NC1CCCC1 [Compound 98]	136 to 147 °C	23.4 µM	32.8 µM	16.4 µM	21.9 µM	–	–	–	–	–	–	–	–
CCCNC(=O)Nc1ccc(C2CCCCC2)cc1 [Compound 15]	166 to 168 °C	–	–	–	–	> 100 µM	> 100 µM	59.1 µM	> 100 µM	–	–	–	–
CC(C)(C)NC(=O)Nc1ccc(C(C)(C)C)cc1 [Compound 8]	167 to 174 °C	–	–	–	–	35.6 µM	55 µM	14.5 µM	34.2 µM	–	–	–	–
S=C(Nc1ccc(I)cc1)NC1CCCC1 [Compound 102]	154 to 162 °C	25.1 µM	39.1 µM	18.6 µM	25.3 µM	–	–	–	–	–	–	–	–
CC(C)(C)NC(=O)Nc1cccc(C(C)(C)C)c1 [Compound 11]	161 to 170 °C	–	–	–	–	34.9 µM	46.5 µM	13.1 µM	36.7 µM	–	–	–	–
CC(C)(C)c1ccc(NC(=S)NC2CC2)cc1 [Compound 95]	119 to 143 °C	64.4 µM	94.5 µM	60 µM	57.9 µM	–	–	–	–	–	–	–	–
CC(C)(C)c1ccc(NC(=S)NC2CCCC2)cc1 [Compound 97]	142 to 154 °C	28.8 µM	40 µM	22.6 µM	26.2 µM	–	–	–	–	–	–	–	–
S=C(NCC1CCC1)Nc1ccc(C2CCCCC2)cc1 [Compound 88]	144 to 152 °C	20.4 µM	32.5 µM	15.7 µM	15.3 µM	–	–	–	–	–	–	–	–
CCCNC(=O)Nc1ccc(C(C)(C)C)cc1 [Compound 9]	147 to 151 °C	–	–	–	–	54.9 µM	> 100 µM	10.5 µM	67.1 µM	–	–	–	–
CC(C)NC(=O)Nc1ccc(C2CCCCC2)cc1 [Compound 13]	163 to 170 °C	–	–	–	–	56.9 µM	> 100 µM	59.1 µM	60.8 µM	–	–	–	–

Continued, in another order:

melting point	Compound	IC50 ([1]; Table 8)	IC50 ([2]; Table 8)	IC50 ([3]; Table 8)	IC50 ([4]; Table 8)	IC50 ([1]; Table 5)	IC50 ([2]; Table 5)	IC50 ([3]; Table 5)	IC50 ([4]; Table 5)	IC50 ([1]; Table 6)	IC50 ([2]; Table 6)	IC50 ([3]; Table 6)	IC50 ([4]; Table 6)
109 to 115 °C	CCNC(=S)Nc1ccc(C(C)(C)C)cc1 [Compound 94]	92 µM	> 100 µM	94 µM	71.1 µM	–	–	–	–	–	–	–	–
153 to 156 °C	CC(C)NC(=O)Nc1cccc(I)c1 [Compound 4]	–	–	–	–	> 100 µM	94.5 µM	59.1 µM	80.3 µM	–	–	–	–
138 to 141 °C	CCCNC(=O)Nc1cccc(C(C)(C)C)c1 [Compound 12]	–	–	–	–	> 100 µM	> 100 µM	81.5 µM	> 100 µM	–	–	–	–
98 to 108 °C	S=C(NCC1CCC1)Nc1ccc(I)cc1 [Compound 92]	27.2 µM	48.2 µM	24.2 µM	26.2 µM	–	–	–	–	–	–	–	–
146 to 152 °C	S=C(Nc1ccc(C2CCCCC2)cc1)NC1CCCC1 [Compound 89]	21.6 µM	34.9 µM	14.6 µM	20 µM	–	–	–	–	–	–	–	–
136 to 147 °C	S=C(NCC1CCC1)Nc1cccc(I)c1 [Compound 99]	27 µM	35.5 µM	19.4 µM	26.2 µM	–	–	–	–	–	–	–	–
182 to 189 °C	CC(C)(C)NC(=O)Nc1ccc(C2CCCCC2)cc1 [Compound 14]	–	–	–	–	25.5 µM	35.4 µM	17.2 µM	18.5 µM	–	–	–	–
132 to 136 °C	CCCNC(=O)Nc1cccc(I)c1 [Compound 6]	–	–	–	–	87.9 µM	99.7 µM	44.2 µM	80 µM	–	–	–	–
195 to 203 °C	CC(C)(C)NC(=O)Nc1cccc(C2CCCCC2)c1 [Compound 17]	–	–	–	–	58.3 µM	87.9 µM	16.3 µM	44.1 µM	–	–	–	–
105 to 111 °C	CC(C)(C)c1cccc(NC(=S)NCC2CCC2)c1 [Compound 90]	20.2 µM	34.3 µM	18.2 µM	17.5 µM	–	–	–	–	–	–	–	–
122 to 128 °C	S=C(Nc1cccc(C2CCCCC2)c1)NC1CC1 [Compound 105]	12.7 µM	16.3 µM	14.7 µM	15.9 µM	–	–	–	–	–	–	–	–
115 to 120 °C	O=C(NCC1CCC1)Nc1cccc(C2CCCCC2)c1 [Compound 68]	–	–	–	–	–	–	–	–	5.6 µM	3.7 µM	12 µM	8 µM
